According to the Kinase Knowledgebase extract (Sharma et al. 2016):
“And” between values parts separate entries of the source, which are not always exact repeats. Equal entries are not always repeated.

Columns and labels:
MAPK14 (human) [1] = molecular target: MAPK14 (human) (UniProt Q16539); test: Inhibition of MAPK14 Kinase Activity by PHAS-I Assay; conditions: for inhibition: concentration not given here
MAPK14 (human) [2] = molecular target: MAPK14 (human) (UniProt Q16539); test: Inhibition of LPS Stimulated TNF Production by U937 Cells; conditions: for inhibition: concentration not given here

MAPK14 (human), sequence (Q16539 whole entry, looked up): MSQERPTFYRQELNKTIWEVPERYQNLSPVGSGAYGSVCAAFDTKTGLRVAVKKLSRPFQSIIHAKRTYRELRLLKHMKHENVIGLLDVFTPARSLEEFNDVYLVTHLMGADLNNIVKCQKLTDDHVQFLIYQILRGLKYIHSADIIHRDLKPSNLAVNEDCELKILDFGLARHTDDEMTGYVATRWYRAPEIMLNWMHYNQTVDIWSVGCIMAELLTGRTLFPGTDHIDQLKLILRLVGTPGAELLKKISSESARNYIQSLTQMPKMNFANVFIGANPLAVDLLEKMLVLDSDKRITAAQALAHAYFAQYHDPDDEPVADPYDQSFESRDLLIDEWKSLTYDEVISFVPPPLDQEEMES

Row | SMILES | inhibition (MAPK14 (human) [1]) | inhibition (MAPK14 (human) [2]) | IC50 (MAPK14 (human) [1]) | IC50 (MAPK14 (human) [2])
1 | CCOC(=O)NC(=O)NCCc1[nH]nc(-c2ccc(F)cc2)c1-c1ccncc1 | 56% | 22% |  | 
2 | CN(C)C(=O)NCCc1[nH]nc(-c2ccc(F)cc2)c1-c1ccncc1 | 75% | 52% |  | 
3 | Cc1c(-c2ccncc2)c(-c2ccc(F)cc2)nn1CC(=O)NC1CCc2ccccc21 (stereo not given) | 73% | 25% |  | 
4 | CC1(C)[C@@H]2CC[C@]1(CCS(=O)(=O)NCc1[nH]nc(-c3ccc(F)cc3)c1-c1ccncc1)C(=O)C2 |  | 1% | 45 nM | 
5 | COCCN(Cc1cccc(OC)c1)C(=O)Cn1nc(-c2ccc(F)cc2)c(-c2ccncc2)c1C | 37% | 22% |  | 
6 | O=C(NCCc1[nH]nc(-c2ccc(F)cc2)c1-c1ccncc1)Nc1ccccc1-c1ccccc1 | 63% | 35% |  | 
7 | CCOC(=O)CNC(=O)NCCc1[nH]nc(-c2ccc(F)cc2)c1-c1ccncc1 | 74% |  |  | 1100 nM
8 | O=C(NCCc1[nH]nc(-c2ccc(F)cc2)c1-c1ccncc1)NC(=O)c1ccccc1 | 67% | 36% |  | 
9 | COc1cccc(C(=O)NCCCc2[nH]nc(-c3ccc(F)cc3)c2-c2ccncc2)c1 | 71% |  |  | 790 nM
10 | O=S(=O)(NCCc1[nH]nc(-c2ccc(F)cc2)c1-c1ccncc1)c1ccccc1F | 87% | 36% |  | 
11 | O=C(CCC1CC=CC1)NCc1[nH]nc(-c2ccc(F)cc2)c1-c1ccncc1 | 71% | 84% |  | 
12 | Cc1ccc([C@@H](C)NC(=O)Cn2nc(-c3ccc(F)cc3)c(-c3ccncc3)c2C)cc1 | 81% | 45% |  | 
13 | Cn1cc(-c2ccncc2)c(-c2ccc(F)cc2)n1 |  |  | 700 nM | 96.7 nM and 130 nM
14 | CC(=O)O[C@H](C)C(=O)NCCCc1[nH]nc(-c2ccc(F)cc2)c1-c1ccncc1 | 82% |  |  | 570 nM

Now from value to compound:

Row | inhibition (MAPK14 (human) [1]) | inhibition (MAPK14 (human) [2]) | IC50 (MAPK14 (human) [1]) | IC50 (MAPK14 (human) [2]) | SMILES
15 |  |  | 800 nM | 208 nM | Cc1[nH]nc(-c2ccc3c(c2)CCCO3)c1-c1ccncc1
16 |  | 38% | < 100 nM |  | CC1(C)[C@H]2CC[C@@]1(CS(=O)(=O)NCCCc1[nH]nc(-c3ccc(F)cc3)c1-c1ccncc1)C(=O)C2
17 | 79% | 12% |  |  | C[C@H](NC(=O)NCCc1[nH]nc(-c2ccc(F)cc2)c1-c1ccncc1)c1ccccc1
18 | 63% | 24% |  |  | O=C(NCCc1[nH]nc(-c2ccc(F)cc2)c1-c1ccncc1)Nc1ccc(Oc2ccccc2)cc1
19 | 74% | 29% |  |  | O=C(NCCc1[nH]nc(-c2ccc(F)cc2)c1-c1ccncc1)c1ccccc1
20 | 69% | 65% |  |  | O=S(=O)(/C=C/c1ccccc1)NCCCc1[nH]nc(-c2ccc(F)cc2)c1-c1ccncc1
21 | 42% | 13% |  |  | CCCCOc1ccc(NC(=O)NCc2[nH]nc(-c3ccc(F)cc3)c2-c2ccncc2)cc1
22 | 67% | 9% |  |  | C=Cc1ccc(S(=O)(=O)NCc2[nH]nc(-c3ccc(F)cc3)c2-c2ccncc2)cc1
23 | 58% | 18% |  |  | Cc1ccc(S(=O)(=O)NCCc2[nH]nc(-c3ccc(F)cc3)c2-c2ccncc2)cc1
24 | 50% | 5% |  |  | CC(C)c1ccc(NC(=O)NCCc2[nH]nc(-c3ccc(F)cc3)c2-c2ccncc2)cc1
25 | 74% | 57% |  |  | O=S(=O)(NCCCc1[nH]nc(-c2ccc(F)cc2)c1-c1ccncc1)c1ccccc1
26 | 82% | 66% |  |  | O=S(=O)(NCCc1[nH]nc(-c2ccc(F)cc2)c1-c1ccncc1)C(F)(F)F
27 | 0% | 26% |  |  | O=C(NCCc1[nH]nc(-c2ccc(F)cc2)c1-c1ccncc1)c1cccc(Br)c1
28 |  | 20% | 55 nM |  | O=C(NCCCc1[nH]nc(-c2ccc(F)cc2)c1-c1ccncc1)NCCN1CCOCC1
29 | 94% |  |  | > 10000 nM | CCCCCSc1cccc(NC(=O)Cn2nc(-c3ccc(F)cc3)c(-c3ccncc3)c2C)c1
30 | 91% |  |  | > 10000 nM | Cc1c(-c2ccncc2)c(-c2ccc(F)cc2)nn1CC(=O)Nc1ccccc1OC(F)(F)F
